Measurements published in PMC10037499, “High-Throughput Screen Reveals the Structure–Activity Relationship of the Antimicrobial Lasso Peptide Ubonodin” (ACS Central Science, 2023).
Read-outs that look alike come from different tables or passages of the source. Where a SMILES comes first, the peptide text is derived from it.

Assays:
[1] = tested on: RNA polymerase (RNAP) in E. coli MC1061; experiment: High-throughput growth-based screen with NGS (enrichment value) for RNA polymerase inhibition; format: cell-based; design: key to Experimental observation (enrichment observed in the screen): Dropout: Many variants inhibit RNAP so strongly that they cannot be detected by NGS after IPTG induction (referred to as dropout variants); settings: Table S4; variants whose MICs were tested
Protocol: The single mutant library was analyzed by NGS at multiple stages of sample preparation (Figure 2A) to track its evolution throughout the screen. Specifically, the frequency of each possible aa variant was computed at each stage by summing up counts for each distinct translated sequence and dividing by the total number of counts for all variants (eq S1, SI Methods). Since cells expressing an RNAP-inhibiting ubonodin variant will have growth defects relative to cells with a nontoxic variant, RNAP-inhibiting ubonodin variants are expected to decrease in frequency throughout the screen.
First, the naïve library (digested PCR products) was sequenced. These digested PCR products were cloned into the pUboABC backbone and transformed into a recA^– cloning strain. This plasmid library was sequenced again to capture any changes upon transformation of the library into E. coli. The change between the naïve library and the cloning transformation library was minimal (Figure S6A). This plasmid library was transformed into the screening strain MC1061, and the plasmid from resulting colonies was also sequenced. The library in MC1061 was grown up en masse in liquid culture to mid log phase, and a portion of the culture was plated. These colonies were scraped, then the plasmid was isolated and sequenced. Finally, the liquid culture was induced with IPTG, after which a portion of the culture was plated and the plasmid was isolated and sequenced. It is key to note that all samples from liquid cultures were plated prior to sequencing to ensure that only viable cells were sequenced. […] The rationale for sequencing at these five different stages was the possibility that leaky expression of uboA would affect the frequency of active mutants prior to IPTG induction. Indeed, we observed that the frequency of some uboA mutants dropped as soon as they were transformed into the screening strain MC1061 while the frequency of other mutants climbed (Figure 2B).
The behavior of the point variants (i.e., variants with a single aa substitution) was examined by calculating their enrichment values, the base-2 logarithm of the ratio of the variant’s frequency at a specific step of the screen to the variant’s frequency in the cloning transformation library (eq S3, Figure S6). The most relevant enrichment value for ubonodin activity is the comparison between the post-IPTG library and the cloning transformation library (Figure 2A). […] Many variants inhibit RNAP so strongly that they cannot be detected by NGS after IPTG induction (referred to as dropout variants). […] Variants with a stop codon mutation and variants containing an aa substitution at Tyr9 or Tyr27 (positions conserved in MccJ25 and shown to be crucial for RNAP inhibition, see Figure S7)[26] have positive enrichment values (1.2–1.7), serving as quality control for the screen (Figure 3A). Strikingly, 63% of point variants decreased in frequency, indicating a high tolerance to aa substitution. […] The positions with active variants are Asn11 through Ser24 in the loop and Asp3, Ser5, and Ala7 in the ring.
The single mutant and double mutant libraries were transformed into E. coli MC1061. Colonies were resuspended in media and subcultured into a larger culture. Aliquots of the cultures were sampled prior to and after induction with 10 μM IPTG and 100 μM IPTG and plated. After 16 h of incubation, the colonies were resuspended in media and plasmids were miniprepped.
Samples were PCR amplified with barcoded primers and combined such that double mutant library samples were over-represented compared to single mutant library samples to provide sufficient coverage of the larger double mutant library. Samples were sequenced using an Illumina MiSeq Micro 300nt and an Illumina NovaSeq 6000 Sequencing System. Downstream analysis of the data was conducted with Python, MATLAB, and R.
V to reduce genomic DNA contamination. One fragment was amplified with Xho I For Lib and a […]

B. cenocepacia AU0756 = tested on: B. cenocepacia AU0756
Protocol: We proceeded to test the antimicrobial activity of the selected variants against two clinical isolates of the Bcc, B. cenocepacia AU0756 and B. cenocepacia AU24362, in broth microdilution assays. […] We revisited these measurements using broth microdilution assays following the Clinical & Laboratory Standards Institute (CLSI) standard.
Broth microdilution assays of the ubonodin variants were conducted using B. cenocepacia AU0756 and B. cenocepacia AU24362 with guidelines provided by the Clinical & Laboratory Standards Institute (CLSI).

E. coli MC1061 = experiment: Spot dilution assay of E. coli producing the ubonodin variant from pUboABC; format: cell-based; settings: variant in pUboABC backbone in E. coli MC1061, induction with 100 μM IPTG, ten-fold serial dilutions, biological duplicates
Protocol: Cultures of E. coli MC1061 transformed with the appropriate plasmids were grown. Aliquots of the cultures were sampled prior to and after induction with 100 μM IPTG, and 10-fold serial dilutions were plated. […]
All cloning was conducted by PCR amplification (using Q5 polymerase), restriction digestion, ligation, (using T4 DNA ligase), and transformation into chemically competent E. coli XL1-Blue. All cloning with a pUboABC backbone was done by plating transformation mixt ures onto Lysogeny Broth (LB) plates supplemented with 100 μg/mL ampicillin and 0.2% w/v glucose, and colonies were inoculated into LB media supplemented with 100 μ g/mL ampicillin and 0.2% w/v glucose to suppress any leaky expression. Cloning for all other plasmid constructs was done by plating transformation mixtures onto Lysogeny Broth (LB) plates supplemented with 100 μ g/ m L ampicillin, and colonies were inoculated into LB media supplemented with 100 μ g/ m L ampicillin.
Plasmids were extracted using Qiagen QIAprep Spin Miniprep Kit and sequence verified using Sanger sequencing. All primer sequences are listed in Table S7, and all plasmid constructs are […]
pUboABC was cloned by amplifying pWC99 with pQE-80 NheI For and pAT8 Nco I Rev.
The amplicon was ligated into pWC99 digested with Nhe I and Nco I. pUboBC was cloned by digesting pUboABC with Nh e I and Nco I and ligating that fragment into pQE-80 digested with Nhe I and Nco I. pUboABC S5H I16P and pUboABCD S5H I16P were cloned with overlap PCR using pWC99 as the template. One fragment was amplified with pQE-80 EcoRI For and S5H I16P Rev v2 and the second fragment was amplified with S5H I16P For v2 and pQE-80 HindII I Rev. […]
All remaining plasmid constructs were cloned with overlap PCR. One fragment was amplified with Xho I For Lib and a mutagenic reverse primer and the second fragment was amplified with NheI Rev Lib and a mutagenic forward primer. The templates and mutagenic […]
The fragments were joined with a second round of PCR and amplified with XhoI For Lib and NheI Rev Lib. Amplicons were ligated into the appropriate plasmid backbone digested with Xho I and Nhe I-HF. The plasmid backbones […]
The appropriate plasmid was transformed into electrocompetent E. coli MC1061, plated onto LB plates supplemented with 100 μ g/ m L ampicillin and 0.2% w/v glucose, and incubated at 30 °C for 16 hours. Colonies were inoculated into LB media supplemented with 100 μ g/ m L ampicillin and 0.2% w/v glucose and grown at 37 °C for 16 hours. These cultures were sub-cultured to an OD600 of 0.02 in 50 mL of LB media supplemented with 100 μg/mL ampicillin in a 250 mL flask. Once the OD600 reached 0.3, a 1 mL aliquot was sampled immediately prior to inducing the cultures with 100 μM isopropyl β-D-1-thiogalactopyranoside (IPTG). The aliquot was washed with Phosphate-Buffered Saline (PBS) two times and ten-fold serial dilutions were spotted onto LB plates supplemented with 100 μ g/ m L ampicillin and 0.2% w/v glucose. For each following timepoint, a 1 mL sample of each culture was withdrawn, washed with PBS two times, and ten- […]
fold serial dilutions were spotted onto LB plates supplemented with 100 μ g/m L ampicillin and 0.2% w/v glucose. Plates were incubated for 16 hours at 37 °C before imaging. […]
250 mL flask. Ten-fold serial dilutions of the culture were plated onto LB plates supplemented with 100 μ g/ m L ampicillin and 0.2% w/v glucose. The cultures were then grown at 37 °C, and once the OD600 reached 0.3, a 1 mL sample of the culture was withdrawn immediately before the cultures were induced with 10 μM or 100 μM IPTG and returned to grow longer. […]
All plates were incubated at 37 °C for 16 hours, after which the number of colonies was counted. Three biological replicates of this assay were done.
Co-Culture of E. coli MC1061 pUboABC and E. coli MC1061 pUboBC pUboABC (0.9 ng) and pUboBC (0.1 ng) were transformed into electrocompetent E. coli MC1061 with a one- hour outgrowth at 37 °C in LB media supplemented with 0.2% w/v glucose. […]

| SMILES | Experimental observation (enrichment observed in the screen) [1] | B. cenocepacia AU0756 MIC (B. cenocepacia AU0756) [µM] | MIC (B. cenocepacia AU0756) [µM] | MIC (B. cenocepacia AU0756; broth microdilution, mass basis, strain not named in the sentence (values match AU0756)) [µg/mL] | Inhibits Growth (E. coli MC1061) |
| --- | --- | --- | --- | --- | --- |
| CC[C@H](C)[C@H](NC(=O)[C@H](Cc1c[nH]cn1)NC(=O)[C@H](CCSC)NC(=O)[C@@H]1CCCN1C(=O)[C@H](CCCNC(=N)N)NC(=O)[C@H](CC(N)=O)NC(=O)[C@H](Cc1ccccc1)NC(=O)[C@H](Cc1ccc(O)cc1)NC(=O)[C@@H]1CCC(=O)NCC(=O)NCC(=O)N[C@@H](CC(=O)O)C(=O)NCC(=O)N[C@@H](CO)C(=O)N[C@@H]([C@@H](C)CC)C(=O)N[C@@H](C)C(=O)N1)C(=O)NCC(=O)N[C@@H](CC(=O)O)C(=O)N[C@@H](Cc1c[nH]c2ccccc12)C(=O)N[C@@H](CCC(N)=O)C(=O)N[C@H](C(=O)N[C@@H](CCSC)C(=O)N[C@@H](CC(=O)O)C(=O)N[C@@H](CO)C(=O)NCC(=O)N[C@@H](Cc1ccc(O)cc1)C(=O)N[C@@H](Cc1ccc(O)cc1)C(=O)NCC(=O)O)[C@@H](C)CC [H17G] (HELM PEPTIDE1{G.G.D.G.S.I.A.E.Y.F.N.R.P.M.H.I.G.D.W.Q.I.M.D.S.G.Y.Y.G}$PEPTIDE1,PEPTIDE1,1:R1-8:R3$$$V2.0) | -6.5 | 0.125 to 0.25 | 0.125 to 0.25 | 0.4 to 0.8 | Yes |
| CC[C@H](C)[C@H](NC(=O)[C@H](CCC(N)=O)NC(=O)[C@H](Cc1c[nH]c2ccccc12)NC(=O)[C@H](CC(=O)O)NC(=O)[C@H](Cc1c[nH]cn1)NC(=O)[C@H](C)NC(=O)[C@H](Cc1c[nH]cn1)NC(=O)[C@H](CCSC)NC(=O)[C@@H]1CCCN1C(=O)[C@H](CCCNC(=N)N)NC(=O)[C@H](CC(N)=O)NC(=O)[C@H](Cc1ccccc1)NC(=O)[C@H](Cc1ccc(O)cc1)NC(=O)[C@@H]1CCC(=O)NCC(=O)NCC(=O)N[C@@H](CC(=O)O)C(=O)NCC(=O)N[C@@H](CO)C(=O)N[C@@H]([C@@H](C)CC)C(=O)N2CCC[C@H]2C(=O)N1)C(=O)N[C@@H](CCSC)C(=O)N[C@@H](CC(=O)O)C(=O)N[C@@H](CO)C(=O)NCC(=O)N[C@@H](Cc1ccc(O)cc1)C(=O)N[C@@H](Cc1ccc(O)cc1)C(=O)NCC(=O)O [A7P I16A] (HELM PEPTIDE1{G.G.D.G.S.I.P.E.Y.F.N.R.P.M.H.A.H.D.W.Q.I.M.D.S.G.Y.Y.G}$PEPTIDE1,PEPTIDE1,1:R1-8:R3$$$V2.0) | Dropout | 4 to 8 |  |  | Yes |
| CC[C@H](C)[C@@H]1NC(=O)[C@H](CO)NC(=O)CNC(=O)[C@H](CC(=O)O)NC(=O)CNC(=O)CNC(=O)CC[C@@H](C(=O)N[C@@H](Cc2ccc(O)cc2)C(=O)N[C@@H](Cc2ccccc2)C(=O)N[C@@H](CC(N)=O)C(=O)N[C@@H](Cc2ccccc2)C(=O)N2CCC[C@H]2C(=O)N[C@@H](CCSC)C(=O)N[C@@H](Cc2c[nH]cn2)C(=O)N[C@H](C(=O)N[C@@H](Cc2c[nH]cn2)C(=O)N[C@@H](CC(=O)O)C(=O)N[C@@H](Cc2c[nH]c3ccccc23)C(=O)N[C@@H](CCC(N)=O)C(=O)N[C@H](C(=O)N[C@@H](CCSC)C(=O)N[C@@H](CC(=O)O)C(=O)N[C@@H](CO)C(=O)NCC(=O)N[C@@H](Cc2ccc(O)cc2)C(=O)N[C@@H](Cc2ccc(O)cc2)C(=O)NCC(=O)O)[C@@H](C)CC)[C@@H](C)CC)NC(=O)[C@H](C)NC1=O [R12F] (HELM PEPTIDE1{G.G.D.G.S.I.A.E.Y.F.N.F.P.M.H.I.H.D.W.Q.I.M.D.S.G.Y.Y.G}$PEPTIDE1,PEPTIDE1,1:R1-8:R3$$$V2.0) | -5.3 | 2 |  |  | Yes |
| CC[C@H](C)[C@H](NC(=O)[C@H](Cc1c[nH]cn1)NC(=O)[C@H](CCSC)NC(=O)[C@@H]1CCCN1C(=O)[C@@H](NC(=O)[C@H](CC(N)=O)NC(=O)[C@H](Cc1ccccc1)NC(=O)[C@H](Cc1ccc(O)cc1)NC(=O)[C@@H]1CCC(=O)NCC(=O)NCC(=O)N[C@@H](CC(=O)O)C(=O)NCC(=O)N[C@@H](CO)C(=O)N[C@@H]([C@@H](C)CC)C(=O)N[C@@H](C)C(=O)N1)C(C)C)C(=O)NCC(=O)N[C@@H](CC(=O)O)C(=O)N[C@@H](Cc1c[nH]c2ccccc12)C(=O)N[C@@H](CCC(N)=O)C(=O)N[C@H](C(=O)N[C@@H](CCSC)C(=O)N[C@@H](CC(=O)O)C(=O)N[C@@H](CO)C(=O)NCC(=O)N[C@@H](Cc1ccc(O)cc1)C(=O)N[C@@H](Cc1ccc(O)cc1)C(=O)NCC(=O)O)[C@@H](C)CC [R12V H17G] (HELM PEPTIDE1{G.G.D.G.S.I.A.E.Y.F.N.V.P.M.H.I.G.D.W.Q.I.M.D.S.G.Y.Y.G}$PEPTIDE1,PEPTIDE1,1:R1-8:R3$$$V2.0) | Dropout | 0.25 to 0.5 |  |  | Yes |
